Earlier results as cited in patent US10206949B2, “Composition that relieves heartburn, GERD and hangovers” (priority 2015, dated 2019).

[1] = patients with acute renal or cardiac failure

## CNC(=C[N+](=O)[O-])NCCSCc1ccc(CN(C)C)o1 [ranitidine, N-(2-[(5-[(dimethylamino)methyl]furan-2-yl)methylthio]ethyl)-N′-methyl-2-nitroethene-1,1-diamine]
In vivo
  false positives for methamphetamine on drug tests: known to give false positives
Patients on ranitidine
  fungal sepsis: observed in some patients
[1]
  mucosal perfusion: decrease mucosal perfusion
  risk of death: increases their risk of death
